For one test, the target named is EGFR (human) (UniProt P00533). The conditions noted are these: 3t3.
Another test has as its target EGFR (UniProt P00533).

SMILES strings stand for the structures.

Sequence of EGFR (human) (P00533 whole entry, looked up): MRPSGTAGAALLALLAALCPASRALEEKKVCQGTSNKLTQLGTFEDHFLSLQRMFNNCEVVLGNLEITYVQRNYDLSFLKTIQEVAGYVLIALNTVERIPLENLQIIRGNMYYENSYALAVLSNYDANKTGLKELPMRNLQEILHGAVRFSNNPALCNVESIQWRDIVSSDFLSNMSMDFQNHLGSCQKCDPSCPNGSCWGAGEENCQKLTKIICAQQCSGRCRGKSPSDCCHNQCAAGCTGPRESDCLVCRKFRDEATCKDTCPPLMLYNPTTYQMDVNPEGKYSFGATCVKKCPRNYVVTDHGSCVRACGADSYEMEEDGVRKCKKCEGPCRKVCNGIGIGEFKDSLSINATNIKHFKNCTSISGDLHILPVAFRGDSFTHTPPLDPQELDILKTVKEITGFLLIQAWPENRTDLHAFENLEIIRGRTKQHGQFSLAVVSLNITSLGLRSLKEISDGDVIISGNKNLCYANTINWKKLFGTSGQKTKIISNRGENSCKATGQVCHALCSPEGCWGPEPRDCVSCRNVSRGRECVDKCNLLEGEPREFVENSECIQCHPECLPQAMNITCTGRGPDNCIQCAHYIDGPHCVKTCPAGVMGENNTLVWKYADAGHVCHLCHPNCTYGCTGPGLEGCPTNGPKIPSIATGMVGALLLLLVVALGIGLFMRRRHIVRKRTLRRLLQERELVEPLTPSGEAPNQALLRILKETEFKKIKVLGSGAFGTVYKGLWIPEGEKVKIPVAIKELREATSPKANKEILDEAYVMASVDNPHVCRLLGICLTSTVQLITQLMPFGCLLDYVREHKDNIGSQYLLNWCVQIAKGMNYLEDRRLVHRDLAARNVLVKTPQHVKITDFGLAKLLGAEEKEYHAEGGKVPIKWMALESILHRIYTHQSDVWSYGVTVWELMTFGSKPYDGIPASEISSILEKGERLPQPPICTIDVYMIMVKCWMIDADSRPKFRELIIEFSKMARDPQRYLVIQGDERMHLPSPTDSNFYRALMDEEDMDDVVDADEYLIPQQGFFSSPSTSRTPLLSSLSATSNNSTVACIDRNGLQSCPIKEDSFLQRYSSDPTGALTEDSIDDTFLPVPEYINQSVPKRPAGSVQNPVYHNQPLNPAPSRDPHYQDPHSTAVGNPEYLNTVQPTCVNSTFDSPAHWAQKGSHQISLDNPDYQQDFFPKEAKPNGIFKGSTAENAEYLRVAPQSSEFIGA
Sequence of EGFR (P00533 whole entry, looked up): as above

What is called IC50 is the concentration needed to halve the response being measured. High values mean weaker potency, low ones greater potency. `COc1cc2c(cc1OC)/C(=C/c1[nH]cc(CCC(=O)O)c1C)C(=O)N2` returned an IC50 against EGFR (human) of over 50 µM.

At EGFR (human), `Cc1cccc2c1/C(=C\c1[nH]cc(CCC(=O)O)c1C)C(=O)N2` had a half-maximal inhibitory concentration (IC50) of over 50 µM.

Turning to `Cc1[nH]c(/C=C2/C(=O)Nc3cc(O)ccc32)c(C)c1CCC(=O)O`, on EGFR (human), the IC50 was over 50 µM.

`Cc1c(CCC(=O)O)c[nH]c1/C=C1/C(=O)Nc2ccc(Cl)cc21` came in with a half-inhibitory concentration (IC50) against EGFR (human) of 12 µM.

`Cc1[nH]c(/C=C2/C(=O)Nc3ccc(I)cc32)c(C)c1CCC(=O)O` returned an IC50 on EGFR (human) of over 50 µM.

For the molecule `COc1ccc2c(c1)/C(=C/c1[nH]cc(CCC(=O)O)c1C)C(=O)N2`, the IC50 against EGFR (human) is over 50 µM.

Consider `COc1ccccc1-c1ccc2c(c1)NC(=O)/C2=C\c1[nH]c(C)c(CCCN2CCOCC2)c1C`, for which the half-maximal inhibitory concentration (IC50) is over 100 µM on EGFR and 3.9 µM against EGFR (human).

In turn, `Cc1cccc2c1/C(=C\c1[nH]c(C)c(CCC(=O)O)c1C)C(=O)N2` gave an IC50 against EGFR (human) of over 50 µM.

At EGFR (human), `COc1ccc2c(c1)NC(=O)/C2=C\c1[nH]c(C)c(CCC(=O)O)c1C` came in with an IC50 of over 50 µM.

`COc1ccc(-c2ccc3c(c2)NC(=O)/C3=C\c2[nH]c(C)c(CCC(=O)O)c2C)cc1` showed an IC50 on EGFR (human) of over 50 µM.

`Cc1[nH]c(/C=C2/C(=O)Nc3cc(-c4ccccc4)ccc32)c(C)c1CCCN1CCOCC1`: the IC50 on EGFR is over 100 µM; on EGFR (human), over 50 µM.

As for `COc1ccc2c(c1)NC(=O)/C2=C\c1[nH]c(C)c(CCCN(C)C)c1C`, the half-maximal inhibitory concentration (IC50) is over 100 µM on EGFR and 27.5 µM at EGFR (human).

On EGFR (human), `Cc1cccc2c1/C(=C\c1[nH]c(C)c(CCCN(C)C)c1C)C(=O)N2` came in with a half-maximal inhibitory concentration (IC50) of 20.2 µM.

At EGFR (human), `Cc1c(CCC(=O)O)c[nH]c1/C=C1/C(=O)Nc2ccccc21` registered an IC50 of over 50 µM.

At EGFR (human), `Cc1c(CCC(=O)O)c[nH]c1/C=C1/C(=O)Nc2cc(-c3ccccc3)ccc21` gave an IC50 of 30.5 µM.

Turning to `COc1cccc(-c2ccc3c(c2)NC(=O)/C3=C\c2[nH]c(C)c(CCCN3CCOCC3)c2C)c1`, the IC50 was over 100 µM at EGFR and 41.9 µM against EGFR (human).

As for `Cc1c(CCC(=O)O)c[nH]c1/C=C1/C(=O)Nc2ccc(Br)cc21`, the IC50 against EGFR (human) was over 50 µM.

In the case of `COC(=O)c1ccc2c(c1)/C(=C/c1[nH]cc(CCC(=O)O)c1C)C(=O)N2`, the IC50 on EGFR (human) is over 50 µM.

On to `Cc1c(CCC(=O)O)c[nH]c1/C=C1/C(=O)Nc2cc(Cl)ccc21`, for which the IC50 at EGFR (human) was over 50 µM.

The molecule `COc1cccc(-c2ccc3c(c2)NC(=O)/C3=C\c2[nH]cc(CCC(=O)O)c2C)c1` returned an IC50 against EGFR (human) of 30.6 µM.

Take `Cc1[nH]c(/C=C2/C(=O)Nc3ccc(Br)cc32)c(C)c1CCC(=O)O`: the concentration for half-maximal inhibition (IC50) against EGFR (human) was over 50 µM.

Turning to `Cc1[nH]c(/C=C2/C(=O)Nc3cc(-c4ccccc4)ccc32)c(C)c1CCCN(C)C`, the half-maximal inhibitory concentration (IC50) was over 100 µM against EGFR and 4 µM against EGFR (human).

Regarding `Cc1ccc2c(c1)/C(=C\c1[nH]c(C)c(CCCN(C)C)c1C)C(=O)N2`, the half-inhibitory concentration (IC50) against EGFR (human) worked out at 25.4 µM.

With `Cc1[nH]c(/C=C2/C(=O)Nc3ccc(S(=O)(=O)N4CCOCC4)cc32)c(C)c1CCCN(C)C`, the half-maximal inhibitory concentration (IC50) against EGFR (human) stood at 29.8 µM.

As to `Cc1c(CCC(=O)O)c[nH]c1/C=C1/C(=O)Nc2ccc(I)cc21`, at EGFR (human), the IC50 was over 50 µM.

At EGFR (human), `Cc1[nH]c(/C=C2\C(=O)Nc3ccc(S(=O)(=O)NC(C)C)cc32)c(C)c1CCCN(C)C` registered an IC50 of 8.38 µM.

With `Cc1[nH]c(/C=C2/C(=O)Nc3cc(Cl)ccc32)c(C)c1CCCN(C)C`, the IC50 against EGFR was determined as 86.6 µM; on EGFR (human), 25.4 µM.

Take `Cc1[nH]c(/C=C2/C(=O)Nc3ccc(Cl)cc32)c(C)c1CCCN(C)C`: the 50% inhibitory concentration (IC50) is over 100 µM at EGFR and 7.49 µM at EGFR (human).

For `Cc1[nH]c(/C=C2/C(=O)Nc3ccc(Br)cc32)c(C)c1CCCN(C)C`, the half-inhibitory concentration (IC50) is over 100 µM on EGFR and 4.1 µM at EGFR (human).

Consider `CCOc1cccc(-c2ccc3c(c2)NC(=O)/C3=C\c2[nH]cc(CCC(=O)O)c2C)c1`, for which the half-inhibitory concentration (IC50) against EGFR (human) was determined as 37.2 µM.

Turning to `Cc1[nH]c(/C=C2/C(=O)Nc3ccc(Cl)cc32)c(C)c1CCC(=O)O`, the IC50 against EGFR (human) is over 50 µM.

As for `Cc1[nH]c(/C=C2/C(=O)Nc3ccc(S(=O)(=O)N(C)C)cc32)c(C)c1CCCN(C)C`, the IC50 at EGFR (human) is 11.2 µM.

`COc1ccc(-c2ccc3c(c2)NC(=O)/C3=C\c2[nH]c(C)c(CCCN3CCOCC3)c2C)cc1`: the values for the half-maximal inhibitory concentration (IC50) at EGFR and against EGFR (human) were over 100 µM and over 50 µM, respectively.

Regarding `Cc1[nH]c(/C=C2/C(=O)Nc3ccccc32)c(C)c1CCCN(C)C`, the figures for the half-inhibitory concentration (IC50) against EGFR and against EGFR (human) were over 100 µM and 12.6 µM, respectively.

On EGFR (human), `Cc1[nH]c(/C=C2/C(=O)Nc3cc(-c4ccccc4)ccc32)c(C)c1CCC(=O)O` registered a concentration for half-maximal inhibition (IC50) of 32.7 µM.

In the case of `COc1ccccc1-c1ccc2c(c1)NC(=O)/C2=C\c1[nH]c(C)c(CCCN(C)C)c1C`, the IC50 on EGFR is 22.8 µM; against EGFR (human) it was 9.56 µM.

`Cc1ccc2c(c1)/C(=C\c1[nH]cc(CCC(=O)O)c1C)C(=O)N2` showed a concentration for half-maximal inhibition (IC50) on EGFR (human) of over 50 µM.

As to `COc1ccc2c(c1)/C(=C/c1[nH]c(C)c(CCCN(C)C)c1C)C(=O)N2`, the results for the concentration for half-maximal inhibition (IC50) at EGFR and against EGFR (human) were over 100 µM and 11 µM, respectively.

Regarding `Cc1[nH]c(/C=C2/C(=O)Nc3ccc(Br)cc32)c(C)c1CCCN1CCOCC1`, the half-maximal inhibitory concentration (IC50) against EGFR is over 100 µM; at EGFR (human), 44.6 µM.

The molecule `CCc1ccc2c(c1)/C(=C/c1[nH]cc(CCC(=O)O)c1C)C(=O)N2` gave a 50% inhibitory concentration (IC50) on EGFR (human) of over 50 µM.

The molecule `Cc1ccc2c(c1)/C(=C\c1[nH]c(C)c(CCC(=O)O)c1C)C(=O)N2` showed a 50% inhibitory concentration (IC50) at EGFR (human) of over 50 µM.

`COc1ccc2c(c1)NC(=O)/C2=C\c1[nH]cc(CCC(=O)O)c1C` displayed an IC50 against EGFR (human) of over 50 µM.

For `COc1cccc(-c2ccc3c(c2)NC(=O)/C3=C\c2[nH]c(C)c(CCCN(C)C)c2C)c1`, the concentration for half-maximal inhibition (IC50) at EGFR came out at 28.1 µM; against EGFR (human), 9.57 µM.

For `COc1ccc(-c2ccc3c(c2)NC(=O)/C3=C\c2[nH]cc(CCC(=O)O)c2C)cc1`, the concentration for half-maximal inhibition (IC50) against EGFR (human) was determined as 36.8 µM.

In turn, `Cc1[nH]c(/C=C2/C(=O)Nc3ccc(S(N)(=O)=O)cc32)c(C)c1CCCN(C)C` registered an IC50 against EGFR (human) of 6.59 µM.

Molecule `Cc1c(CCC(=O)O)c[nH]c1/C=C1/C(=O)Nc2cc(Br)ccc21` yielded a concentration for half-maximal inhibition (IC50) against EGFR (human) of over 50 µM.

Turning to `Cc1[nH]c(/C=C2/C(=O)Nc3cccc(CCO)c32)c(C)c1CCCN(C)C`, the IC50 at EGFR (human) came to 25.3 µM.

Consider `Cc1[nH]c(/C=C2/C(=O)Nc3ccccc32)c(C)c1CCCN1CCOCC1`, for which the IC50 against EGFR was over 100 µM; against EGFR (human), over 50 µM.

`CCOc1cccc(-c2ccc3c(c2)NC(=O)/C3=C\c2[nH]c(C)c(CCC(=O)O)c2C)c1`: the IC50 at EGFR (human) stood at 24.7 µM.

As for `COc1ccc(-c2ccc3c(c2)NC(=O)/C3=C\c2[nH]c(C)c(CCCN(C)C)c2C)cc1`, the values for the concentration for half-maximal inhibition (IC50) against EGFR and against EGFR (human) were over 100 µM and 3.86 µM, respectively.

Values taken from the Kinase Knowledgebase extract (Sharma et al. 2016).
